According to US8324457B2, “Soybean event 3560.4.3.5 and compositions and methods for the identification and/or detection thereof” (Pioneer Hi-Bred International, Inc., priority 2006, dated 2012):
Read-outs that look alike come from different tables or passages of the source.

Columns and labels:
[1] = tested on: 3560.4.3.5 soybean; experiment: Field glyphosate tolerance trials, T3 and T4 plants, visual rating; type: in vivo, Glycine max
Protocol: (§1) The 3560.4.3.5 soybean event was evaluatead for glyphosate tolerance. […] Plots were evaluated for crop response at 7 and 14 days after treatment (DAT), and rated using a 1-9 score. Crop response data were analyzed using the general linear model (GLM) and mixed model analysis of variance (ANOVA) procedures of SAS. (The SAS System is a registered trademark of SAS Institute, Inc., Cary, N.C., USA)
Selected T4 lines were tested for glyphosate tolerance. This experiment was a RCB design in a split plot arrangement with two replications of individual 1.2 m rows (76.2 cm row spacing). At the V3 growth stage, 6.72 kg ae ha^−1 glyphosate was applied to one block, while another was unsprayed for use as a control. The third block received a sequential application of 6.72 kg ae ha^−1 glyphosate at V3 followed by 6.72 kg ae ha^−1 glyphosate at R1. Plots were evaluated for crop response at 7 DAT and 14 DAT, and assigned a visual response score from 0% to 100% response, where 0%=no response observed to 100%=plot completely dead.
(§2) The T3 plants from the 3560.4.3.5 plants were sprayed in a glyphosate herbicide tolerance field trial. […] The untransformed control line was susceptible to any glyphosate application and was consistently rated as a 1. 3560.4.3.5 soybean T4 plants were advanced for additional glyphosate tolerance testing.

[2] = tested on: 3560.4.3.5 soybean; type: in vivo, Glycine max; conditions: glyphosate 1.68 kg ae ha^−1, ALS inhibitors 5.8 + 4.4 g ai ha^−1
Protocol: The second set of tolerance experiments were designed to measure yield potential of 3560.4.3.5 soybean after application of common field use rates of glyphosate and/or ALS inhibitor herbicides. […] One experiment was grown at field A and two experiments were grown at field B and C (which were separated by planting date and physical distance of field locations.) In addition, the two fields had different environmental influence; one field experienced drought stress through the spring and early summer, the other was well irrigated throughout the growing season. Treatments were randomized within each of the replications and sprayed at the VC, V2, R2, or R5 growth stages. Treatments consisted of 1.68 kg ai ha^−1 glyphosate, 5.8 g ai ha^−1 chlorimuron ethyl+4.4 g ai ha^−1 thifensulfuron methyl, and 1.68 kg ai ha^−1 glyphosate+5.8 g ai ha^−1 chlorimuron ethyl+4.4 g ai ha^−1 thifensulfuron methyl. […] Plots were harvested and yield was calculated for each plot.
The second set of experiments conducted with event 3560.4.3.5 were designed to measure yield potential after application of different herbicides at field use rates that would be commonly utilized for soybean production. Across the glyphosate, ALS inhibitor, and glyphosate plus ALS inhibitor treatments there was minimal (10% or less) to essentially no response at 7, 14, and 28 DAT (Table 20). When yield data was collected, there were no significant yield differences detected for any of the herbicide treatments applied at different the growth stages (Table 20). In addition, the replications that received herbicide treatments were not statistically different from the unsprayed control replications for yield (Table 20). Based upon multiple year herbicide tolerance trials, it can be concluded that event 3560.4.3.5 had excellent tolerance to field use rates of glyphosate, ALS inhibitor, and glyphosate plus ALS inhibitor herbicides. In addition, yield potential was not affected when event 3560.4.3.5 was sprayed with glyphosate, ALS inhibitor, and glyphosate plus ALS inhibitor chemistries at different vegetative and reproductive growth stages.

[3] = tested on: transgenic event 3560.4.3.5 soybean; experiment: Greenhouse herbicide tolerance of T0 and T1 plants, visual rating 10 days after spray; type: in vivo, Glycine max
Description: Selected events were advanced at the T1 generation for herbicide tolerance confirmation in greenhouses. Plants were sprayed at the V3 growth stage with either 1.68 kg ae ha^−1 glyphosate, 60 g ai ha^−1 thifensulfuron methyl(methyl 3-[[[[(4-methoxy-6-methyl-1,3,5-triazin-2-yl)amino]carbonyl]amino]sulfonyl]-2-thiophenecarboxylate), or a sequential […] […] […] Since the T1 events were segregating, only the non-susceptible plants were scored, and an average rating of tolerant plants within each event was calculated.
(§3) T0 3560.4.3.5 soybean were evaluated for glyphosate tolerance.
The 3560.4.3.5 event was advanced to the T1 generation in a greenhouse to confirm herbicide tolerance. The 3560.4.3.5 event had tolerance after application of 1.68 kg ae ha^−1 glyphosate, after application of 60.0 g ai ha^−1 thifensulfuron methyl, and after a sequential application of 70 g ai ha^−1 thifensulfuronmethyl at V3, […]

[4] = tested on: untransformed parental line; experiment: Greenhouse glyphosate spray of the control line, visual rating; type: in vivo, Glycine max; conditions: either glyphosate application rate of the T0 test; 1 to 9 scale, 1 = dead plant
Protocol: Plants were rated using a 1 to 9 scale ten days after treatment (DAT), where 1=dead plant to 9=no observed spray response.
as §3

[5] = tested on: untransformed control line; experiment: Field glyphosate tolerance trial, control line; type: in vivo, Glycine max; conditions: any glyphosate application (3.36, 6.72 or 13.44 kg ae ha-1), 1 to 9 scale
Protocol: as §1, §2

[6] = tested on: 3560.4.3.5 soybean; experiment: Tolerance to glyphosate tank mixes with other pesticides at V2 or R2, crop response rating; conditions: glyphosate 3.36 kg ae ha-1, chlorpyrifos 560.4, bentazon 1120.9, imazethapyr 141.3, fomesafen 263.4, tribenuron-methyl 17.5, thifensulfuron-methyl 17.5 g ai ha-1
Protocol: The first experiments were grown in an RCB design of three replications of paired 3.7 m rows (76.2 cm row spacing), blocked by replication with randomized spray treatments within each replication. […] Visual response ratings (0% to 100%) were assigned to each plot at 7 DAT, 14 DAT, and 28 DAT. Crop response data were analyzed using the GLM and mixed model ANOVA procedures of SAS.

[7] = tested on: 3560.4.3.5 soybean; experiment: ALS inhibitor herbicide tolerance field trials, crop response rating; design: species or system Glycine max; conditions: in vivo
Description: ALS inhibitor herbicide tolerance of the gm-hra gene was compared to sulfonylurea tolerant soybeans (STS®) by growing T4 plants of event 3560.4.3.5 and a STS® cultivar. […] Spray treatments were applied at the V3 growth stage and consisted of one of the following: an unsprayed control, 8.8 g ai ha^−1 rimsulfuron (N-[[(4,6-dimethoxy-2-pyrimidinyl)amino]carbonyl]-3-(ethylsulfonyl)-2-pyridinesulfonamide), 8.8 g ai ha^−1 tribenuron methyl (methyl 2-[[[[(4-methoxy-6-methyl-1,3,5-triazin-2-yl)methylamino]carbonyl]amino]sulfonyl]benzoate), or 30.0 g ai ha^−1 chlorimuron ethyl (ethyl 2-[[[[(4-chloro-6-methoxypyrimidin-2-yl)amino]carbonyl]amino]sulfonyl]benzoate)+9.67 g ai ha^−1 thifensulfuron methyl. […] Plots were evaluated for crop response at 7 DAT and 14 DAT, and assigned a visual response score from 0% to 100% response. Crop response data were analyzed using the mixed model ANOVA procedure of SAS.
ALS inhibitor herbicide tolerance trials were completed at two separate locations. Plants from the T5 generation of event 3560.4.3.5 and a STS® cultivar were grown in a RCB design in a split plot arrangement with three replications of paired 2.4 m rows (76.2 cm row spacing). […] Crop response data were analyzed using the mixed model ANOVA procedure of SAS. […]

[8] = tested on: seedlings that lacked the event; experiment: Chlorsulfuron herbicide seedling test on germination paper; type: in vivo, Glycine max; conditions: germination paper saturated with 20 ml/l of a 66.7 mg/l chlorsulfuron stock, pH 7.5; observed 10 days after initial treatment
[9] = tested on: seedlings that possessed the 3560.4.3.5 event; experiment: as above; type: in vivo, Glycine max; conditions: germination paper saturated with 20 ml/l of a 66.7 mg/l chlorsulfuron stock, pH 7.5; observed 10 days after initial treatment

Structure (SMILES): O=C(O)CNCP(=O)(O)O [Glyphosate]
- LSMean visual rating ([1]; T3 plants, glyphosate 3.36 kg ae ha-1, 7 DAT, 1 = completely dead plot to 9 = no response): 8.0
- LSMean visual rating ([1]; T3 plants, glyphosate 6.72 kg ae ha-1, 7 DAT, 1 = completely dead plot to 9 = no response): 6.7
- LSMean visual rating ([1]; T3 plants, glyphosate 13.44 kg ae ha-1, 7 DAT, 1 = completely dead plot to 9 = no response): 5.7
- LSMean visual rating ([1]; T4 plants, glyphosate 6.72 kg ae ha-1 at V3, 7 DAT, 1 to 9 scale): 6.8
- LSMean visual rating ([1]; T4 plants, glyphosate 6.72 kg ae ha-1 at V3, 14 DAT, 1 to 9 scale): 7.8
- LSMean visual rating ([1]; T4 plants, sequential glyphosate 6.72 kg ae ha-1 at V3 then 6.72 at R1, 7 DAT after the R1 application, 1 to 9 scale): 7.8
- LSMean visual rating ([1]; T4 plants, sequential glyphosate 6.72 kg ae ha-1 at V3 then 6.72 at R1, 14 DAT after the R1 application, 1 to 9 scale): 7.7
- crop response rating 7 DAT (LSMean) ([2]; Application Stage R2): 2.0%
- crop response rating 14 DAT (LSMean) ([2]; Application Stage R2): 0.6%
- crop response rating 28 DAT (LSMean) ([2]; Application Stage R2): 0.0%
- crop response rating 7 DAT (LSMean) ([2]; Application Stage R5): 0.3%
- crop response rating 14 DAT (LSMean) ([2]; Application Stage R5): 0.3%
- crop response rating 28 DAT (LSMean) ([2]; Application Stage R5): 0.0%
- crop response rating 7 DAT (LSMean) ([2]; Application Stage V2): 5.3%
- crop response rating 14 DAT (LSMean) ([2]; Application Stage V2): 2.8%
- crop response rating 28 DAT (LSMean) ([2]; Application Stage V2): 0.6%
- crop response rating 7 DAT (LSMean) ([2]; Application Stage VC): 1.6%
- crop response rating 14 DAT (LSMean) ([2]; Application Stage VC): 0.8%
- crop response rating 28 DAT (LSMean) ([2]; Application Stage VC): 0.6%
- average visual response rating ([3]; T0 plants, glyphosate 1.68 kg ae ha-1 + NIS + AMS, 10 days after application, greenhouse, scale 0 = dead plant to 9 = no response detected): 7.0
- average visual response rating ([3]; T0 plants, glyphosate 3.36 kg ae ha-1 + NIS + AMS, 10 days after application, greenhouse, scale 0 = dead plant to 9 = no response detected): 6.5
- average visual response rating, second score of sequential application ([3]; T1 tolerant plants, 70 g ai ha-1 thifensulfuron methyl at V3 followed by glyphosate 1.68 kg ae ha-1 at V6, 10 days after the V6 glyphosate application, scale to 9 = no response): 8.0
- average visual response rating ([3]; T1 tolerant plants, glyphosate 1.68 kg ae ha-1 + NIS + AMS at V3, 10 days after application, scale to 9 = no response): 7.0
- visual rating [4]: 1
- visual rating [5]: 1
- LSMean crop response rating, 7 DAT Average ([6]; applied at R2): 1.7%
- LSMean crop response rating, 14 DAT Average ([6]; applied at R2): 0.6%
- LSMean crop response rating, 28 DAT Average ([6]; applied at R2): 0.0%
- LSMean crop response rating, 14 DAT Average ([6]; applied at V2): 3.3%
- LSMean crop response rating, 28 DAT Average ([6]; applied at V2): 0.6%
- LSMean crop response rating, 7 DAT Average ([6]; applied at V2, + NIS + AMS, 0% = no response, 100% = plot completely dead): 3.9%

Structure (SMILES): COC(=O)c1ccccc1S(=O)(=O)NC(=O)Nc1nc(C)nc(OC)n1 [Metsulfuron methyl, methyl 2-[[[[(4-methoxy-6-methyl-1,3,5-triazin-2-yl)amino]carbonyl]amino]sulfonyl]benzoate]
- crop response of 3560.4.3.5 soybean compared to STS, in words [7]: significantly lower crop response compared to STS®

Structure (SMILES): CCS(=O)(=O)c1cccnc1S(=O)(=O)NC(=O)Nc1nc(OC)cc(OC)n1 [Rimsulfuron, N-[[(4,6-dimethoxy-2-pyrimidinyl)amino]carbonyl]-3-(ethylsulfonyl)-2-pyridinesulfonamide]
- crop response of 3560.4.3.5 soybean compared to STS, in words [7]: significantly lower crop response compared to STS®

Structure (SMILES): COC(=O)c1sccc1S(=O)(=O)NC(=O)Nc1nc(C)nc(OC)n1 [Thifensulfuron methyl, methyl 3-[[[[(4-methoxy-6-methyl-1,3,5-triazin-2-yl)amino]carbonyl]amino]sulfonyl]-2-thiophenecarboxylate]
- average visual response rating ([3]; T1 tolerant plants, thifensulfuron methyl 60.0 g ai ha-1 + NIS + AMS at V3, 10 days after application, scale to 9 = no response): 7.0
- average visual response rating, first score of sequential application ([3]; T1 tolerant plants, thifensulfuron methyl 70 g ai ha-1 + NIS + AMS at V3, 10 days after the V3 application, scale to 9 = no response): 8.0

Structure (SMILES): COc1nc(C)nc(NC(=O)NS(=O)(=O)c2ccccc2Cl)n1 [chlorsulfuron, 2-chloro-N-[[(4-methoxy-6-methyl-1,3,5-triazin-2-yl)amino]-carbonyl]benzenesulfonamide]
- seedling response in chlorsulfuron solution [8]: created hooked unifoliolate leaves that did not expand and develop any further
- seedling response in chlorsulfuron solution [9]: germinated and grew normally
